# Where a name gives a salt, the structure may show the parent alone.
# Experiments:
# [1] = Body weight gain of obese mouse (compound A-mixed feed, 4 days); format: in vivo, male KKA^y mice; details: KKA^y mice, 10 week old, 0.005% compound A-mixed feed (about 6.5 mg/kg/day), mean±standard error, control 1.2±0.2 g, p<0.05
# Procedure: Effect of 2-ethoxy-1-[[2′-(2,5-dihydro-5-oxo-1,2,4-oxadiazole-3-yl)biphenyl-4-yl]methyl]benzimidazole-7-carboxylic acid (Compound A) on Body Weight Gain of Obese Mouse
# As the obese mouse, male KKA^y mice (10 week old) were used. The mice were grouped by measuring the body weight, and feeding of a CE-2 powdered feed (control)(n=7) and a 0.005% compound A-mixed feed (n=7) was started. At 4 days from feeding, the body weight was measured and the amount of the body weight gain was calculated. As the normal control, C57BL mice were used, and after feeding a CE-2 powdered feed for 4 days, whether the male KKA^y mice of the same age became obese was also examined.
# The results are shown in mean±standard error. For the analysis of significance, Student's t-test was used. • 2) Results
# [2] = Body weight gain induced by PPARγ agonist-like substance (pioglitazone) in obesity rats; format: in vivo, male Wistar fatty rats; details: Wistar fatty rats, 7 days
# Procedure: Effect of Compound a on Body Weight Gain Induced by PPARγ Agonist-Like Substance (Pioglitazone) As the obesity rats, male Wistar fatty rats (16 week old) were used. The body weights were measured and the rats were grouped, after which a suspension of a drug in 0.5% methylcellulose solution was repeatedly and forcibly administered orally once a day for 7 consecutive days. After 24 hr from the final administration, the body weight was measured and the body weight gain was calculated. […] For the analysis of significance, Student's t-test was used. • 2) Results
# [3] = patients with type II diabetes; Diabetes, 47, suppl. 1, A18, No. 69, 1998; cited from earlier work
smiles,measurement,setting,value
"CCOc1nc2cccc(C(=O)O)c2n1Cc1ccc(-c2ccccc2-c2nc(=O)o[nH]2)cc1 [compound A, 2-ethoxy-1-[[2′-(2,5-dihydro-5-oxo-1,2,4-oxadiazol-3-yl)biphenyl-4-yl]methyl]benzimidazole-7-carboxylic acid]",body weight gain during the test period,[1],0.1 ± 0.4 g
same,amount of body weight gain,"[2]; compound A 1 mg/kg/day p.o. together with PPARγ agonist-like substance (pioglitazone hydrochloride) 0.5 mg/kg/day p.o., p<0.05 vs single administration group",19.3 ± 2.5 g
CCc1ccc(CCOc2ccc(CC3SC(=O)NC3=O)cc2)nc1 (stereo not shown) [pioglitazone hydrochloride],amount of body weight gain,"[2]; 0.5 mg/kg/day p.o. alone, mean±standard error, control 24.4±2.4 g, p<0.05",30.8 ± 1.8 g
Cc1c(C)c2c(c(C)c1O)CCC(C)(COc1ccc(CC3SC(=O)NC3=O)cc1)O2 (stereo not shown) [troglitazone],effect on body weight,[3],body weight gaining action
